Measurements taken from PMC7796107, “Efficient Separation of Phytochemicals from Muehlenbeckia volcanica (Benth.) Endl. by Polarity-Stepwise Elution Counter-Current Chromatography and Their Antioxidant, Antiglycation, and Aldose Reductase Inhibition Potentials” (Molecules, 2021).
Like-named read-outs stand apart in the source and are kept apart here. Marks after values point to notes of the source that are not given here.

What was measured:
[1] = ABTS radical scavenging assay; type: biochemical; conditions: Trolox equivalent antioxidant capacity
Protocol: (§1) The antioxidant activities of the 70% methanol extract of M. volcanica and the separated compounds were evaluated using DPPH, ABTS, and ORAC assays. The results were expressed as Trolox equivalent antioxidant capacity (TEAC, µg Trolox/µg extract or µM Trolox/µM compound), which were calculated with the equations obtained from the calibration curves of Trolox standards (final concentrations) versus their DPPH and ABTS radical inhibition (%) and the net AUC value (ORAC assay).
The ABTS radical scavenging assay was carried out using the same EL800 microplate reader. Briefly, 0.2 mM of ABTS diammonium salt was prepared in 3.5 mM of potassium persulfate aqueous solution, and the mixture solution was then diluted 10 times using distilled water. The diluted solution was allowed to stand for 24 h in the dark at room temperature (about 25 °C) to produce ABTS radical cations (ABTS^+). For reaction, 290 μL of ABTS^+ solution was mixed with 10 μL of sample (dissolved in methanol, extract 62.5–125 µg/mL; compounds 20–250 µM) in a 96-well plate, and the mixture solution was allowed to react for 10 min at 25 °C in the dark. Then, the absorbance was measured at 750 nm. […] Results are expressed in µg Trolox equivalents/µg extract or µM Trolox equivalents/µM compound. The ABTS radical scavenging activity (%) is calculated using Equation (1) where Asample is the absorbance of ABTS^+ solution with a sample, Ablank1 is the absorbance of the test sample without ABTS^+, Acontrol is the absorbance of ABTS^+ solution without a sample, Ablank2 is the absorbance of buffer, without ABTS^+ or a sample.

aldose reductase (AR) = target: T1, aldose reductase (AR) (Rattus norvegicus, UniProt P07943); assay: Aldose reductase (AR) inhibition assay, rat lens homogenate; type: biochemical, Sprague–Dawley rats; conditions: for IC50: rat lens AR homogenate
T1 construct: centrifuged at 10,000× g for 30 min at 4 °C (Centrifuge 5417R, Eppendorf, Germany) to obtain AR homogenate (in the supernatant); from tissue; host or cells: eye lenses of Sprague–Dawley rats
Protocol: For the extraction of AR, the rat eye lenses were grounded in a precooled mortar (−70 °C) and extracted using 0.1 M PBS (pH 6.2; about 0.5 mL of PBS per two frozen rat lenses).
A 96-well plate-based AR inhibition assay was used in this study, which was modified from a previous method. In principle, the rate of the absorbance decrease of NADPH at 340 nm (OD340 nm) was used for evaluation of the AR inhibitory activity. […] Then, as soon as 20 μL of the substrate (DL-glyceraldehyde dimer, 25 mM in 0.1 M PBS, pH 7.0) was added, the absorbance of the reaction solution at 340 nm was measured for 6 min using an Epoch microplate spectrophotometer (BioTek Instruments, Highland Park, IL, USA). […] The samples were first prepared at high concentrations in DMSO or in a mixture of DMSO and water and then diluted using water shortly before the experiment. The concentration of DMSO was kept within 0.2% (v/v) in the reaction system. […] The AR inhibition ratio (%) for the samples was calculated using Equation (4):(4) %inhibition=1−Slopes−Slopeb/Slopec−Slopeb×100%, where Slopec, Slopes, and Slopeb are the slopes obtained from the OD340 nm versus the reaction time (min) dotted lines of the control group (without sample), sample group (with enzyme and sample), and blank group (without enzyme or sample), respectively. |Slope| is the absolute value of Slope.

[2] = ORAC (oxygen radical absorbance capacity) assay; type: biochemical; conditions: Trolox equivalent antioxidant capacity, ORAC assay (peroxyl radicals)
Protocol: as §1
The ORAC assay was carried out using a Fluoroskan Ascent FL microplate reader (Thermo, Waltham, MA, USA) using the method described previously with minor modifications. Antioxidants can scavenge the peroxyl radicals generated by AAPH, which prevent the degradation of the fluorescein and, therefore, prevent the loss of the fluorescence of fluorescein. Briefly, fluorescein sodium salt (117 nM) and AAPH (40 mM) were freshly prepared in 0.1 M phosphate-buffered saline (PBS, pH 7.4). For reaction, 120 µL of fluorescein sodium salt (117 nM) and 20 µL of sample (dissolved in methanol, extract 10–20 µg/mL; compounds 10–160 µM) were mixed in a black 96-well plate and pre-incubated for 15 min at 37 °C. Next, 60 µL of AAPH (40 mM) was added, and the fluorescence was measured 100 times (interval 1 min) at excitation and emission wavelengths of 485 nm and 538 nm, respectively, by the microplate reader maintained at 37 °C. […] The relative ORAC values are expressed in µg Trolox equivalents/µg extract or µM Trolox equivalents/µM compound.

[3] = target: fructose-mediated bovine serum albumin (BSA) glycation (Bos taurus, UniProt P02769); assay: Antiglycation assay, fructose-mediated BSA glycation model; conditions: for inhibition at 12.5 µM / inhibition at 25 µM / inhibition at 50 µM / inhibition at 100 µM: read-out: Antiglycation activity, inhibition (%)
Chain of fructose-mediated bovine serum albumin (BSA) glycation (P02769 25-607): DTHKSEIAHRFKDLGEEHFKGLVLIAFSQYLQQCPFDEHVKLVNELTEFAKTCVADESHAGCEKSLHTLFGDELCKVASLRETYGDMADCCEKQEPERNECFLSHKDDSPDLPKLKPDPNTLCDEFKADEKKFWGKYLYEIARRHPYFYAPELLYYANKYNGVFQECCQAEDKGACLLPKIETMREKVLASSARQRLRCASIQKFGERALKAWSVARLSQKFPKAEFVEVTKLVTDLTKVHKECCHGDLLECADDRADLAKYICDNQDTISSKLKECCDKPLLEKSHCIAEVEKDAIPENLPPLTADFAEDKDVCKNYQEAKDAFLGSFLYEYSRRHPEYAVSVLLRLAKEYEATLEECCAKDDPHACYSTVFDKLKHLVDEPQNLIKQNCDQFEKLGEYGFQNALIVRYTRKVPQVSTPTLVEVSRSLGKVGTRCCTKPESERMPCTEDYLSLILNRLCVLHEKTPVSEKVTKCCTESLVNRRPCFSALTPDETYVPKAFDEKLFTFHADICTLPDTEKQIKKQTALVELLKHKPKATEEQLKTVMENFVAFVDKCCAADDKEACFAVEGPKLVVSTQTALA

[4] = DPPH radical scavenging assay; type: biochemical; conditions: Trolox equivalent antioxidant capacity
Protocol: as §1
The DPPH radical scavenging assay was carried out using an EL800 microplate reader (Bio-Tek Instruments, Winooski, VT, USA). Briefly, 180 μL of freshly prepared DPPH solution (0.32 mM in methanol) was mixed with 20 μL of sample (dissolved in methanol, extract 250 µg/mL; compounds 62.5–1000 µM) in a 96-well plate. The mixture was incubated for 20 min in the dark at 25 °C, and then, the absorbance was measured at […]. […] Results are expressed in µg Trolox equivalents/µg extract or µM Trolox equivalents/µM compound. The DPPH radical scavenging activity (%) is calculated using Equation (1):(1) %inhibition=1−Asample−Ablank1/Acontrol−Ablank2×100%, where Asample is the absorbance of DPPH solution with a sample, Ablank1 is the absorbance of the test sample without DPPH, Acontrol is the absorbance of DPPH solution without a sample, Ablank2 is the absorbance of methanol, without DPPH or a sample.

[5] = system: streptozotocin-induced diabetic rats; conditions: cited from earlier work
[6] = cited from earlier work
[7] = system: streptozotocin-induced diabetic cats; conditions: cited from earlier work
diabetic rats = conditions: cited from earlier work
diabetic Octodon degus = system: diabetic Octodon degus; set-up: method as in PMID 401544; conditions: oral administration; cited from earlier work
[8] = 6.25 µM, read-out: AR inhibition activity, inhibition (%)
[9] = 12.5 µM, read-out: AR inhibition activity, inhibition (%)
[10] = 25 µM, read-out: AR inhibition activity, inhibition (%)
[11] = 50 µM, read-out: AR inhibition activity, inhibition (%)
[12] = read-out: AR inhibition activity, inhibition (%)

Structure (SMILES)	TEAC, ABTS [1]	inhibition at 6.25 µM (aldose reductase (AR); [8]) [%]	inhibition at 12.5 µM (aldose reductase (AR); [9]) [%]	inhibition at 25 µM (aldose reductase (AR); [10]) [%]	inhibition at 50 µM (aldose reductase (AR); [11]) [%]	TEAC, ORAC [2]	IC50 [3] [µM]	inhibition at 12.5 µM [3] [%]	inhibition at 25 µM [3] [%]	inhibition at 50 µM [3] [%]	inhibition at 100 µM [3] [%]	TEAC, DPPH [4]	Effect on oxidative stress [5]	inhibition at 3.125 µM (aldose reductase (AR); [12]) [%]	inhibition at 6.25 µM (aldose reductase (AR); [12]) [%]	inhibition at 12.5 µM (aldose reductase (AR); [12]) [%]	inhibition at 25 µM (aldose reductase (AR); [12]) [%]	other results
O=C(O)c1ccc(O)c(Nc2cc(C(=O)O)ccc2O)c1 [4,4′-dihydroxy-3,3′-imino-di-benzoic acid]	1.27 ± 0.03 ^c µM trolox/µM Compound	8.57 ± 0.06	14.4 ± 0.6	27.2 ± 0.36	53.3 ± 2.76	5.75 ± 0.26 ^b µM trolox/µM Compound	60.5 ± 2.62	< 0	14.9 ± 3.87	44.5 ± 2.54	68.4 ± 0.92	1.38 ± 0.05 ^d µM trolox/µM Compound						IC50 (aldose reductase (AR)): 47 ± 2.28 µM
Cl.N=C(N)NN [Aminoguanidine hydrochloride, aminoguanidine hydrochloride, reference compound]																		Antiglycation activity, inhibition (%) ([3]; 1000 µM): 10.99 ± 0.07%; Antiglycation activity, inhibition (%) ([3]; 2000 µM): 44.58 ± 0.54%; Antiglycation activity, inhibition (%) ([3]; 4000 µM): 81.26 ± 0.88%; Antiglycation IC50 ([3]; fructose-mediated BSA glycation, 14 days, 37 °C): 317.36 µg/mL; IC50 ([3]; read-out: Antiglycation activity, IC50, fructose-mediated BSA glycation): 2181 ± 8.11 µM
O=C(O)c1cc(O)c(O)c(O)c1 [Gallic acid (3), gallic acid]	3.35 ± 0.06 ^b µM trolox/µM Compound	< 0	4.16 ± 5.43	4.16 ± 1.81	13.5 ± 1.21	1.43 ± 0.08 ^d µM trolox/µM Compound		< 0	< 0	3.69 ± 2.97	8.42 ± 1.27	3.01 ± 0.04 ^a µM trolox/µM Compound	ameliorate the oxidative stress					TEAC, DPPH ([4]; listed as gallic acid): 3.01 µM trolox/µM Compound
O=C(O)[C@H]1O[C@@H](Oc2c(-c3ccc(O)c(O)c3)oc3cc(O)cc(O)c3c2=O)[C@H](O)[C@@H](O)[C@@H]1O [Miquelianin (7), miquelianin]	0.99 ± 0.05 ^f µM trolox/µM Compound					5.85 ± 0.20 ^b µM trolox/µM Compound	24.5 ± 0.52	24.9 ± 2.12	49.4 ± 1.26	78 ± 2.28	90 ± 1.92	1.97 ± 0.02 ^c µM trolox/µM Compound		29.7 ± 1.21	44.5 ± 2.11	59.1 ± 6.86	76.7 ± 1.21	IC50 (aldose reductase (AR)): 7.93 ± 0.4 µM
O=C(O)c1ccc(O)c(O)c1 [Protocatechuic acid (4), protocatechuic acid]	0.88 ± 0.03 ^g µM trolox/µM Compound					5.79 ± 0.32 ^b µM trolox/µM Compound		5.26 ± 4.29	11.4 ± 3.92	36.1 ± 0.78	48.4 ± 1.76	0.72 ± 0.01 ^f µM trolox/µM Compound	ameliorate the oxidative stress		0.96 ± 2.11	2.67 ± 2.71	7.14 ± 0.6	inhibition at 50 µM (aldose reductase (AR); [12]): 7.78 ± 1.51%
O=c1c(O)c(-c2ccc(O)c(O)c2)oc2cc(O)cc(O)c12 [Quercetin (10), quercetin]	3.61 ± 0.03 ^a µM trolox/µM Compound					6.93 ± 0.30 ^a µM trolox/µM Compound		19.4 ± 1.76	35.4 ± 0.92	67.47 ± 0.24	84.3 ± 1.39	2.14 ± 0.03 ^b µM trolox/µM Compound	ameliorate the oxidative stress	12.9 ± 2.11	26.3 ± 1.21	43 ± 3.02	60 ± 1.21	Inhibition of AGEs by trapping methylglyoxal [6]: inhibit AGEs by trapping methylglyoxal; TEAC, ABTS ([1]; listed as quercetin): 3.61 µM trolox/µM Compound; Impaired cardiac function [7]: partially reverse the impaired cardiac function; Progression of lens opacification (diabetic rats): delay the progression of lens opacification
C[C@@H]1O[C@@H](Oc2c(-c3ccc(O)c(O)c3)oc3cc(O)cc(O)c3c2=O)[C@H](O)[C@H](O)[C@H]1O [Quercitrin (9), quercitrin]	1.07 ± 0.05 ^e µM trolox/µM Compound					5.32 ± 0.29 ^c µM trolox/µM Compound	17.6 ± 0.28	32.3 ± 0.24	75.2 ± 2.52	89.1 ± 1.26	94.3 ± 1.39	0.92 ± 0.01 ^e µM trolox/µM Compound	ameliorate the oxidative stress	94.35 ± 0.3				Inhibition of AGEs by trapping methylglyoxal [6]: inhibit AGEs by trapping methylglyoxal; Accumulation of sorbitol in the lens (diabetic Octodon degus): significantly decreased; Onset of cataract (diabetic Octodon degus): delayed; inhibition at 0.049 µM (aldose reductase (AR); [12]): 12 ± 0.82%; inhibition at 0.098 µM (aldose reductase (AR); [12]): 33.3 ± 2.17%; inhibition at 0.195 µM (aldose reductase (AR); [12]): 54.6 ± 1.78%
O=C(O)C1=C[C@@H](O)[C@@H](O)[C@H](O)C1 [Shikimic acid (2), shikimic acid]		< 0	0.32 ± 1.21	5.86 ± 5.42	7.36 ± 0.3			< 0	< 0	< 0	< 0							
